Data reported in patent publication US20070172423A1, “Composition and method for modulating vasculogenesis for angiogenesis” (priority 1998, published 2007).

Legend:
[1] = test system: bovine aorta endothelial cells (BAEC); test: Cell migration assay, BAEC; assay type: cell-based; settings: wounded monolayer, 20 hours, serum-free medium
Procedure: (§1) Cell migration assays were performed on growth arrested confluent HMVEC, BAEC or hSMC cells. Cell monolayers were wounded with a rubber policeman and washed with serum-free medium. Dishes were then incubated for 20 hours in serum-free medium containing VEGF165, PDGF-AA, (R&D Systems, Minneapolis USA) or PDGF-CC. Each assay included two dishes per condition and was repeated three times independently. Cells were photographed at 40× magnification, and migration percentage corresponding to the ratio between area of the cells and the total area of the wound (Biocom visiol@b 2000 version 4.52, San Diego). For HMVEC proliferation assay, cells were seeded in 96-well plates (5 wells per condition), and incubated with VEGF, PDGF-AA, or PDGF-CC (50 ng/ml) after serum starvation. After 7 days, viable cells were counted using the cell Titer-glo luminescent cell viability assay. For NIH-3T3 and hSMC proliferation assay, cells cultured in 96-well plates were serum-starved overnight, followed by treatment with growth factors at different concentrations. Two days later, cell numbers were counted and proliferation percentage calculated, using cells cultured in medium containing 10% serum as control. Aortic ring assay was performed as described 51. […] Aortic rings were analysed at day 9 of culturing. […]

hSMC [2] = test: Cell migration assay, hSMC; assay type: cell-based, human; settings: wounded monolayer, 20 hours
Procedure: as §1, with “For HMVEC proliferation assay, cells were seeded in 96-well plates (5 wells per condition), and incubated with VEGF, PDGF-AA, or PDGF-CC (50 ng/ml) after serum starvation.” left out, “For NIH-3T3 and hSMC proliferation assay, cells cultured in 96-well plates were serum-starved overnight, followed by treatment with growth factors at different concentrations.” left out, “control.” for “control. Aortic ring assay was performed as described 51.”
The mitogenic and chemotactic effect of PDGF-CC was then tested on SMCs and perivascular fibroblast cells, and the effect of PDGF-CC was compared to that of VEGF and PDGF-AA in both cultured cells and the aortic ring assay (Blacher et al., Angiogenesis, 2001 4:133-42). […] In the aortic ring assay, we quantified the growth and emigration of perivascular fibroblasts from the intact vessel using computer-assisted image analysis after treatment with VEGF and different PDGFs at different concentrations. […]

HMVEC = HMVEC proliferation assay; assay type: cell-based, human; settings: 50 ng/ml, 7 days
Procedure: as §1

hSMC [3] = test: hSMC proliferation assay; assay type: cell-based, human; settings: two days, different concentrations
Procedure: as §1

aortic rings = test: Aortic ring assay; assay type: cell-based; settings: for number of sprouting microvessels: day 9 of culturing, versus control
Procedure: Cell migration assays were performed on growth arrested confluent HMVEC, BAEC or hSMC cells. Cell monolayers were wounded with a rubber policeman and washed with serum-free medium. Dishes were then incubated for 20 hours in serum-free medium containing VEGF165, PDGF-AA, (R&D Systems, Minneapolis USA) or PDGF-CC. Each assay included two dishes per condition and was repeated three times independently. Cells were photographed at 40× magnification, and migration percentage corresponding to the ratio between area of the cells and the total area of the wound (Biocom visiol@b 2000 version 4.52, San Diego). For HMVEC proliferation assay, cells were seeded in 96-well plates (5 wells per condition), and incubated with VEGF, PDGF-AA, or PDGF-CC (50 ng/ml) after serum starvation. After 7 days, viable cells were counted using the cell Titer-glo luminescent cell viability assay. For NIH-3T3 and hSMC proliferation assay, cells cultured in 96-well plates were serum-starved overnight, followed by treatment with growth factors at different concentrations. Two days later, cell numbers were counted and proliferation percentage calculated, using cells cultured in medium containing 10% serum as control. Aortic ring assay was performed as described 51. Briefly, one-millimeter long aortic rings were embedded in gels of rat tail interstitial collagen and cultured at 37° C., supplemented with different growth factors (50 ng/ml). Aortic rings were analysed at day 9 of culturing. Experiments included three explants per condition and were repeated at least twice. Aortic rings were photographed at 25× magnification.
Although PDGFR-α is expressed on endothelial cells (Edelberg et al., Journal of Clinical Investigation, 1998 102:837-43; Smits et al., Growth Factors, 1989 2:1-8; Bar et al., Endocrinology, 1989 124:1841-8; Beitz et al., Proc Natl Acad Sci USA, 1991 88:2021-5; Marx et al., J Clin Invest, 1994 93:131-9; Shinbrot et al., Dev. Dyn., 1994 199:169-175), little is known about the functional consequence of PDGFR-α signaling in these cells. […] We also tested the effect of PDGF-CC on cultured aortic rings, as this assay allows assessment of the outgrowth of microvessels from an intact vessel in vitro (Blacher et al., Angiogenesis, 2001 4:133-42). Results are graphically represented as the number of microvessels and the distance over which they grew out from the aortic ring. Each experiment included three explants per condition and was repeated at least twice. At day 9 after culturing, microvessels and the distance of their outgrowth were quantified and evaluated using Student's t test. In baseline conditions, only a small number of microvessels sprouted from the aortic rings—most of them over very short distances (0.25 mm from the aortic ring)—and only a small fraction (<5%) growing out over longer distances (>0.5 mm from the aortic ring, FIG. 41a). VEGF increased not only the number of sprouting microvessels (P<0.001 at all concentrations versus control), but also the distance over which they grew out (P<0.05 at all concentrations versus control; FIG. 41b,f). At 30 ng/ml, PDGF-CC increased the number of microvessels (P<0.001 versus control, FIG. 41e,g) and increased the distance of vessel outgrowth at 5 ng/ml (P<0.01 versus control, FIG. 41g). […] A similar bell-shaped dose-response relationship has been documented for other members of the VEGF/PDGF-superfamily (Jin et al., J Mol Neurosci, 2000 14:197-203). PDGF-AA, however, had no effect on the number of microvessels, although it increased the distance of vessel outgrowth at 5 ng/ml (P<0.01 versus control, FIG. 41h). Thus, PDGF-CC mobilized EC migration in cultured cells and promoted microvessel sprouting in the aortic ring assay.
The mitogenic and chemotactic effect of PDGF-CC was then tested on SMCs and perivascular fibroblast cells, and the effect of PDGF-CC was compared to that of VEGF and PDGF-AA in both cultured cells and the aortic ring assay (Blacher et al., Angiogenesis, 2001 4:133-42). […]

NIH-3T3 fibroblast cells = test: NIH-3T3 proliferation assay; assay type: cell-based; settings: two days, different concentrations
Procedure: as §1

[4] = test system: human microvascular endothelial cells (HMVEC); test: Cell migration assay, HMVEC; assay type: cell-based; settings: wounded monolayer, 20 hours, serum-free medium
Procedure: as §1

[5] = test system: human bone marrow-derived AC133+CD34+ cells; test: Human bone marrow cell adherence and differentiation assay; assay type: cell-based; settings: 50 ng/ml
Procedure: Enriched human BM derived AC133+CD34+ cells (Clonetics) at 10^5/ml were cultured for 3 days in HPGM (Clonetics) in a 6-well plate (Becton Dickinson). Cells were then seeded in collagen coated 12-well plates in EBM (Clonetics) medium containing 4% FCS and VEGF165 (R&D Systems) or PDGF-CC (50 ng/ml each). Growth factors were added every two days and media were refreshed at 75% every four days. For adherence assay, 2.5×10^4 of non-adherent cells/ml were cultured in the same condition on chamber slides coated with collagen, or in 96-well plate coated with 0.3% gelatin in PBS. Cells were then washed three times with PBS, fixed and stained with May-Grünwald Giemsa (Sigma) after two weeks of culture on chamber slides (Becton Dickinson). The number of viable cells was estimated by ATP quantification using cellTiter-glo luminescent cell viability assay (Promega) according to the manufacturer's instructions. For cell surface marker staining, cells (2×10^4/well) cultured on collagen-coated culture slides for two or four weeks were fixed (45 min, 25° C.) and permeabilized (45 min, 25° C.) using a Intrastain Kit (DAKO), and then labeled with CD31-FITC (Becton Dickinson), CD144-FITC (Pharmingen), CD34-FITC (Becton Dickinson) or SMC-Actin CY3 (Sigma). Single or double-labeled cells were analyzed using laser confocal immunofluorescence microscopy.
Upon stimulation by growth factors or cytokines, bone marrow stem/progenitor cells can differentiate into ECs and SMCs and thereby contribute to angio/arteriogenesis (Orlic et al., Nature, 2001 410:701-5; Kawamoto et al., Circulation, 2001 103:634-7; Asahara et al., Circ Res, 1999 85:221-8). The potential role of PDGF-CC in the differentiation of bone marrow progenitors into vascular cells has, however, not been investigated thus far. We therefore cultured human bone marrow-derived AC133^+CD34^+ cells—a population enriched for stem/progenitor cells (Miraglia et al., Blood, 1997 90:5013-21; Yu et al., J Biol Chem, 2002 277:20711-6; Donnelly et al., Leuk Lymphoma, 2001 40:221-34)—and stimulated them with PDGF-CC, using VEGF as a control (50 ng/ml each).

[6] = target: T1, human PDGF receptor alpha (Homo sapiens, UniProt P16234); test: Competition with 125I-PDGF-BB for binding to PAE-1 cells expressing PDGF alpha-receptor; settings: 5 ng/ml 125I-PDGF-BB tracer, on ice 90 minutes
T1 construct: expressed in transfected cells
T1 sequence (P16234 24-1089): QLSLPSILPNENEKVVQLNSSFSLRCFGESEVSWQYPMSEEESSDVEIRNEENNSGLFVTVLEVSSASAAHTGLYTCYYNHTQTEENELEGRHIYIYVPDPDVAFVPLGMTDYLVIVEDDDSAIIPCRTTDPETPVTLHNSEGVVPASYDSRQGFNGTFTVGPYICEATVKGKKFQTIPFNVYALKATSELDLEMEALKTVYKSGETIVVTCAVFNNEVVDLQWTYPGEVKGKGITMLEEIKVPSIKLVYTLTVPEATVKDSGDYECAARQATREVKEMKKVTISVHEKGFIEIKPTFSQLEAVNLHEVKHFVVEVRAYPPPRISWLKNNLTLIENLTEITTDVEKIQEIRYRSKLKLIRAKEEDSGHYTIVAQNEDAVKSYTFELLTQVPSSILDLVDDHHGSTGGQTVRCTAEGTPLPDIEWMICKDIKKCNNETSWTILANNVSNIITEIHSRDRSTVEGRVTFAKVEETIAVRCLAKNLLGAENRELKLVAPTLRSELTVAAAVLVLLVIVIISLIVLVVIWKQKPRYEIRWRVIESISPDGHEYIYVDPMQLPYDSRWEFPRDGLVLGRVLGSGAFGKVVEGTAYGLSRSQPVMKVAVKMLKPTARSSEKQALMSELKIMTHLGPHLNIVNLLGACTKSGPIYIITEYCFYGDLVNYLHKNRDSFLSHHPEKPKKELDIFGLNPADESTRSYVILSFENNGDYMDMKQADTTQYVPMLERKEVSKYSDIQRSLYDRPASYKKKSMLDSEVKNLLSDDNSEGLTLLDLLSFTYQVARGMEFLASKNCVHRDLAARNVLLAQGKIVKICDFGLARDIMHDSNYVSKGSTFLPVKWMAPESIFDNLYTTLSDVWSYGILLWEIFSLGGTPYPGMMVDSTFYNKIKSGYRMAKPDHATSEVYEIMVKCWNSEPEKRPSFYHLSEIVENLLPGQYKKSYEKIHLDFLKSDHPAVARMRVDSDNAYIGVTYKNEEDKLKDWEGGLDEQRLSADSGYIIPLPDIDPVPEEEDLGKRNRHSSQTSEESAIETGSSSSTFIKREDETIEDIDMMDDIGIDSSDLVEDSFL
Procedure: Next, full length and truncated PDGF-C were tested for their capacity to bind to human PDGF receptors alpha and beta by analyzing their abilities to compete with PDGF-BB for binding to PDGF receptors. The binding experiments were performed on porcine aortic endothelial-1 (PAE-1) cells stably expressing the human PDGF receptors alpha and beta (Eriksson et al., EMBO J, 1992, 11, 543-550). Binding experiments were performed essentially as in Heldin et al. (EMBO J, 1988, 7:1387-1393). Different concentrations of human full-length and truncated PDGF-C, or human PDGF-BB were mixed with 5 ng/ml of ^125I-PDGF-BB in binding buffer (PBS containing 1 mg/ml of bovine serum albumin). Aliquots were incubated with the receptor expressing PAE-1 cells plated in 24-well culture dishes on ice for 90 minutes. After three washes with binding buffer, cell-bound 125]-PDGF-BB was extracted by lysis of cells in 20 mM Tris-HCl, pH 7.5, 10% glycerol, 1% Triton X-100. The amount of cell bound radioactivity was determined in a gamma-counter. A standard curve for the binding of ^125I-labeled PDGF BB homodimers to PAE-1 cells expressing PDGF alpha-receptor is shown in FIG. 18.

[7] = test system: protease in AG1523 medium processing full-length PDGF-C; test: Protease inhibitor analysis of PDGF-C processing by AG1523 medium; assay type: biochemical, human; settings: AG1523 serum-free medium, 37° C. overnight, immunoblot
Procedure: To elucidate the mechanism of the proteolysis of PDGF-C a protease inhibitor analysis was conducted. Various protease inhibitors (see Table 1, source: Sigma) were pre-incubated with 0.9 ml of AG1523 serum-free medium at room temperature for 30 minutes, then incubated with 0.2 ml of recombinant full-length PDGF-C (Sf9 serum-free medium) at 37° C. overnight. TCA-precipitated proteins were subjected to SDS-page under reducing conditions and then immunoblotted. Recombinant PDGF-C was detected using an anti-His6 epitope monoclonal antibody (C-terminal) (InVitrogen).

## PDGF-AA: PDGF A-chain homodimer (R&D Systems), PDGFR-α ligand used as control
[1]
  migration of BAEC: no effect
hSMC [2]
  hSMC migration: stimulated
HMVEC
  EC proliferation: no effect
hSMC [3]
  proliferation of cultured hSMC cells: stimulated
Aortic rings; 5 ng/ml, day 9, versus control
  distance of vessel outgrowth: increased
Aortic rings; day 9, versus control
  number and emigration of perivascular fibroblast-like cells: intermediate effect
Aortic rings
  number of sprouting microvessels: no effect
NIH-3T3 fibroblast cells
  proliferation of cultured NIH-3T3 fibroblast cells: stimulated

## VEGF
hSMC [2]
  hSMC migration: no effect
[4]
  migration of HMVECs: stimulated
HMVEC
  EC proliferation: highly stimulated
[5]; four weeks
  SMA expression: remained SMA negative
  expression of CD144 and CD31: still CD144 and CD31 positive
[5]; two weeks of stimulation
  adherence of AC133+CD34+ cells: enhanced
  expression of EC surface markers CD144 (VE-cadherin) and CD31 (PECAM): induced
  expression of smooth muscle cell marker SMA: did not become SMA positive
Aortic rings; all concentrations, day 9, versus control
  distance over which microvessels grew out: increased
Aortic rings; day 9, versus control
  number and emigration of perivascular fibroblast-like cells: in effective
Aortic rings
  number of sprouting microvessels: increased

## PDGF-BB: human PDGF B-chain homodimer, unlabeled competitor and 125I tracer [reference compound]
[6]
  competition for binding to the PDGF alpha-receptor: competed efficiently

## Aprotinin
[7]
  inhibition of proteolytic processing of full-length PDGF-C: capacity to inhibit
